How the values were obtained:
Assay in all cases: biochemical
[1] = molecular target: T1, HCoV-229E 3CL^pro (Human coronavirus 229E, UniProt P0C6X1)
T1 construct: […]; made in house; host or cells: E. coli BL21 (DE3)

[2] = molecular target: MERS-CoV 3CL^pro (Middle East respiratory syndrome-related coronavirus, UniProt K9N7C7)
[3] = molecular target: T2, SARS-CoV-2 3CL^pro (Severe acute respiratory syndrome coronavirus 2, UniProt P0DTD1)
T2 construct: […]; made in house; host or cells: Escherichia coli

[4] = molecular target: SARS-CoV 3CL^pro (Severe acute respiratory syndrome coronavirus, UniProt P0C6X7)

Chain of MERS-CoV 3CL^pro (K9N7C7 3248-3553): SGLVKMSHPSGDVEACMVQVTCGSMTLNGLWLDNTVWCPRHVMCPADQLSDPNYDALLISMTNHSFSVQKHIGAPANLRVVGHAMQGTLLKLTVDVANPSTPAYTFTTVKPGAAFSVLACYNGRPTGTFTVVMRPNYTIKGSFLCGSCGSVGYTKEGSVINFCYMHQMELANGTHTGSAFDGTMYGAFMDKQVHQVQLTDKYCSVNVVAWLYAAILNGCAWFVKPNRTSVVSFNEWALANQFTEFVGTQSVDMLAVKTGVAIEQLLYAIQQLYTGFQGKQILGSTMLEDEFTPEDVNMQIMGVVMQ
T1 sequence (P0C6X1 2966-3267): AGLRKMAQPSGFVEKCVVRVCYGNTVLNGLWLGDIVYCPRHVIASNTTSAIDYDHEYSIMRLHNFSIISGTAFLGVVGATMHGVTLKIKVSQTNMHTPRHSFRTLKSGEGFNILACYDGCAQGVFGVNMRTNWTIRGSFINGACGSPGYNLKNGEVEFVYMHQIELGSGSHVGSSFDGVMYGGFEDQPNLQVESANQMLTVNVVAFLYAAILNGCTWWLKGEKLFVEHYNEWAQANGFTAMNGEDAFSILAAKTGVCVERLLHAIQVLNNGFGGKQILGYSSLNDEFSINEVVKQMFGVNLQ

SMILES	IC50 [1] [nM]	IC50 [2] [nM]	IC50 [3] [nM]	IC50 [4] [nM]
C[C@@H]1C[C@H](CN(NC(=O)[C@@H]2[C@@H]3[C@H](CN2C(=O)[C@@H](NC(=O)[C@@H]2CC2(F)F)C(C)(C)C)C3(C)C)C(=O)[C@@H](F)Cl)C(=O)N1 [Example 32, (1S)-N-[(1S)-1-[(1R,2S,5S)-2-[[[(2S)-2-chloro-2-fluoro-acetyl]-[[(3R,5R)-5-methyl-2-oxo-pyrrolidin-3-yl]methyl]amino]carbamoyl]-6,6-dimethyl-3-azabicyclo[3.1.0]hexane-3-carbonyl]-2,2-dimethyl-propyl]-2,2-difluoro-cyclopropanecarboxamide]	70	200	65	116
CC(C)(C)[C@H](NC(=O)[C@@H]1CC1(F)F)C(=O)N1C[C@@H]2CCC[C@@H]2[C@H]1C(=O)NN(C[C@@H]1CC2(CC2)NC1=O)C(=O)[C@H](F)Cl [Example 25]	40	62	12	14
CC[C@H](C)[C@H](NC(=O)C1(F)CC1)C(=O)N1C[C@H]2[C@@H]([C@H]1C(=O)NN(C[C@@H]1CC(C)(C)NC1=O)C(=O)[C@H](F)Cl)C2(C)C [Example 1a, N-[(1S,2S)-1-[(1R,2S,5S)-2-[[[(2R)-2-chloro-2-fluoro-acetyl]-[[(3S)-5,5-dimethyl-2-oxo-pyrrolidin-3-yl]methyl]amino]carbamoyl]-6,6-dimethyl-3-azabicyclo[3.1.0]hexane-3-carbonyl]-2-methyl-butyl]-1-fluoro-cyclopropanecarboxamide]	421	635	48	84
CCC(CC)[C@H](NC(=O)[C@H](F)Cl)C(=O)N1C[C@@H]2CCC[C@@H]2[C@H]1C(=O)NN(C[C@@H]1CC(C)(C)NC1=O)C(=O)[C@H](F)Cl [Example 9, (2R)-N-[(1S)-1-[(3S,3aS,6aR)-3-[[[(2R)-2-chloro-2-fluoro-acetyl]-[[(3S)-5,5-dimethyl-2-oxo-pyrrolidin-3-yl]methyl]amino]carbamoyl]-3,3a,4,5,6,6a-hexahydro-1H-cyclopenta[c]pyrrole-2-carbonyl]-2-ethyl-butyl]-2-chloro-2-fluoro-acetamide]	241	250	7	7
CC1(C)C[C@@H](CN(NC(=O)[C@@H]2[C@H]3CCC[C@H]3CN2C(=O)[C@@H](NC(=O)[C@@H]2CC2(F)F)C(C)(C)C)C(=O)[C@@H](F)Cl)C(=O)N1 [Example 2a, (1S)—N-[(1S)-1-[(3S,3aS,6aR)-3-[[[(2S)-2-chloro-2-fluoro-acetyl]-[[(3S)-5,5-dimethyl-2-oxo-pyrrolidin-3-yl]methyl]amino]carbamoyl]-3,3a,4,5,6,6a-hexahydro-1H-cyclopenta[c]pyrrole-2-carbonyl]-2,2-dimethyl-propyl]-2,2-difluoro-cyclopropanecarboxamide]	7850	2910	29	64
C[C@H]1C[C@@H](CN(NC(=O)[C@@H]2[C@H]3CCC[C@H]3CN2C(=O)[C@@H](NC(=O)[C@@H]2CC2(F)F)C(C)(C)C)C(=O)[C@H](F)Cl)C(=O)N1 [Example 27, (1S)-N-[(1S)-1-[(3S,3aS,6aR)-3-[[[(2R)-2-chloro-2-fluoro-acetyl]-[[(3S,5S)-5-methyl-2-oxo-pyrrolidin-3-yl]methyl]amino]carbamoyl]-3,3a,4,5,6,6a-hexahydro-1H-cyclopenta[c]pyrrole-2-carbonyl]-2,2-dimethyl-propyl]-2,2-difluoro-cyclopropanecarboxamide]	30	63	6	10
CC(C)(C)[C@H](NC(=O)[C@@H]1CC1(F)F)C(=O)N1C[C@@H]2CCC[C@@H]2[C@H]1C(=O)NN(C[C@H]1C(=O)N[C@@H]2C[C@@H]21)C(=O)[C@H](F)Cl [Example 35, (1S)-N-[(1S)-1-[(3S,3aS,6aR)-3-[[[(2R)-2-chloro-2-fluoro-acetyl]-[[(1R,4S,5R)-3-oxo-2-azabicyclo[3.1.0]hexan-4-yl]methyl]amino]carbamoyl]-3,3a,4,5,6,6a-hexahydro-1H-cyclopenta[c]pyrrole-2-carbonyl]-2,2-dimethyl-propyl]-2,2-difluoro-cyclopropanecarboxamide]	41	117	10	7
CCC(CC)[C@H](NC(=O)C(F)F)C(=O)N1C[C@@H]2CCC[C@@H]2[C@H]1C(=O)NN(C[C@@H]1CC(C)(C)NC1=O)C(=O)[C@@H](F)Cl [Example 12, N-[(1S)-1-[(3S,3aS,6aR)-3-[[[(2S)-2-chloro-2-fluoro-acetyl]-[[(3S)-5,5-dimethyl-2-oxo-pyrrolidin-3-yl]methyl]amino]carbamoyl]-3,3a,4,5,6,6a-hexahydro-1H-cyclopenta[c]pyrrole-2-carbonyl]-2-ethyl-butyl]-2,2-difluoro-acetamide]	1240	555	9	13
CCC(CC)[C@H](NC(=O)C(F)F)C(=O)N1C[C@@H]2CCC[C@@H]2[C@H]1C(=O)NN(C[C@H]1CC(C)(C)NC1=O)C(=O)[C@H](F)Cl [Example 8]	6710	3020	129	256
CC1(C)C[C@@H](CN(NC(=O)[C@@H]2[C@@H]3[C@H](CN2C(=O)[C@@H](NC(=O)[C@@H]2CC2(F)F)C(C)(C)C)C3(C)C)C(=O)[C@@H](F)Cl)C(=O)N1 [Example 23, (1S)-N-[(1S)-1-[(1R,2S,5S)-2-[[[(2S)-2-chloro-2-fluoro-acetyl]-[[(3S)-5,5-dimethyl-2-oxo-pyrrolidin-3-yl]methyl]amino]carbamoyl]-6,6-dimethyl-3-azabicyclo[3.1.0]hexane-3-carbonyl]-2,2-dimethyl-propyl]-2,2-difluoro-cyclopropanecarboxamide]	5430	2080	54	85
CC1(C)C[C@@H](CN(NC(=O)[C@@H]2[C@H]3CCC[C@H]3CN2C(=O)[C@@H](NC(=O)C(F)F)C(C)(C)C)C(=O)[C@H](F)Cl)C(=O)N1 [Example 11, N-[(1S)-1-[(3S,3aS,6aR)-3-[[[(2R)-2-chloro-2-fluoro-acetyl]-[[(3S)-5,5-dimethyl-2-oxo-pyrrolidin-3-yl]methyl]amino]carbamoyl]-3,3a,4,5,6,6a-hexahydro-1H-cyclopenta[c]pyrrole-2-carbonyl]-2,2-dimethyl-propyl]-2,2-difluoro-acetamide]	1690	909	9	14
CC1(C)C[C@@H](CN(NC(=O)[C@@H]2[C@H]3CCC[C@H]3CN2C(=O)[C@@H](NC(=O)C(F)F)C(C)(C)C)C(=O)[C@@H](F)Cl)C(=O)N1 [Example 6, N-[(1S)-1-[(3S,3aS,6aR)-3-[[[(2S)-2-chloro-2-fluoro-acetyl]-[[(3S)-5,5-dimethyl-2-oxo-pyrrolidin-3-yl]methyl]amino]carbamoyl]-3,3a,4,5,6,6a-hexahydro-1H-cyclopenta[c]pyrrole-2-carbonyl]-2,2-dimethyl-propyl]-2,2-difluoro-acetamide]	> 10000	2950	30	41
CC(C)(C)[C@H](NC(=O)[C@@H]1CC1(F)F)C(=O)N1C[C@@H]2CCC[C@@H]2[C@H]1C(=O)NN(C[C@H]1CC2(CC2)NC1=O)C(=O)[C@H](F)Cl [Example 26, (1S)-N-[(1S)-1-[(3S,3aS,6aR)-3-[[[(2R)-2-chloro-2-fluoro-acetyl]-[[(6R)-5-oxo-4-azaspiro[2.4]heptan-6-yl]methyl]amino]carbamoyl]-3,3a,4,5,6,6a-hexahydro-1H-cyclopenta[c]pyrrole-2-carbonyl]-2,2-dimethyl-propyl]-2,2-difluoro-cyclopropanecarboxamide]	45	111	12	11
C[C@H]1C[C@@H](CN(NC(=O)[C@@H]2[C@@H]3[C@H](CN2C(=O)[C@@H](NC(=O)[C@@H]2CC2(F)F)C(C)(C)C)C3(C)C)C(=O)[C@H](F)Cl)C(=O)N1 [Example 33, (1S)-N-[(1S)-1-[(1R,2S,5S)-2-[[[(2R)-2-chloro-2-fluoro-acetyl]-[[(3S,5S)-5-methyl-2-oxo-pyrrolidin-3-yl]methyl]amino]carbamoyl]-6,6-dimethyl-3-azabicyclo[3.1.0]hexane-3-carbonyl]-2,2-dimethyl-propyl]-2,2-difluoro-cyclopropanecarboxamide]	26	72	6	13
CCC(CC)[C@H](NC(=O)[C@@H](F)Cl)C(=O)N1C[C@@H]2CCC[C@@H]2[C@H]1C(=O)NN(C[C@@H]1CC(C)(C)NC1=O)C(=O)[C@@H](F)Cl [Example 13, (2S)-N-[(1S)-1-[(3S,3aS,6aR)-3-[[[(2S)-2-chloro-2-fluoro-acetyl]-[[(3S)-5,5-dimethyl-2-oxo-pyrrolidin-3-yl]methyl]amino]carbamoyl]-3,3a,4,5,6,6a-hexahydro-1H-cyclopenta[c]pyrrole-2-carbonyl]-2-ethyl-butyl]-2-chloro-2-fluoro-acetamide]	401	263	9	11
CC(C)(C)[C@H](NC(=O)[C@@H]1CC1(F)F)C(=O)N1C[C@@H]2CCC[C@@H]2[C@H]1C(=O)NN(C[C@H]1C(=O)N[C@H]2C[C@H]21)C(=O)[C@H](F)Cl [Example 36, (1S)-N-[(1S)-1-[(3S,3aS,6aR)-3-[[[(2R)-2-chloro-2-fluoro-acetyl]-[[(1S,4S,5S)-3-oxo-2-azabicyclo[3.1.0]hexan-4-yl]methyl]amino]carbamoyl]-3,3a,4,5,6,6a-hexahydro-1H-cyclopenta[c]pyrrole-2-carbonyl]-2,2-dimethyl-propyl]-2,2-difluoro-cyclopropanecarboxamide]	54	174	13	14

Source: US20260125421A1, “ANTIVIRAL COMPOUNDS” (Hoffmann-La Roche Inc., priority 2022, published 2026)
